Results from patent US4749710A, “Immunosuppressive agents” (priority 1985, dated 1988).

Tests used:
[1] = tested on: human mixed leukocyte-tumor cultures; test: Total viable cells recovered from human mixed leukocyte-tumor cultures; assay type: cell-based; details: Table IV
Description: Human cytotoxic T-lymphocytes were generated in mixed leukocyte-tumor cultures by known methods. Specifically, blood from normal volunteer donors was drawn into heparinized syringes, diluted 1:1 with calcium-magnesium free Hanks' balanced salt solution (Ca-Mg free HBSS), and layered over lymphocyte separation medium (Litton Bionetics, Kensington, MD). After centrifugation at 500xg for 20-30 min at room temperature, peripheral blood mononuclear cells were harvested from the interface. The peripheral blood mononuclear leukocytes were centrifuged and resuspended in Ca-Mg free HBSS and were subsequently separated from platelets by centrifugation at 500xg through a solution of 20% sucrose and 1% human AB serum in Ca-Mg free HBSS. The cells were washed once and finally resuspended in tissue culture medium. […] Cells to be used as stimulator cells in mixed leukocyte-tumor cultures were irradiated with 10,000 rads of gamma irradiation to preclude proliferation in culture. Mixed leukocyte-tumor cell cultures were established in 16 mm tissue culture wells at a final volume of 1.5 ml per well containing 2×10^6 peripheral blood mononuclear leukocytes and 5×10^4 irradiation-inactivated stimulator cells. […]

[2] = tested on: cytotoxic T-lymphocyte responses (P815 tumor cells); test: Suppression of murine CTL responses in vivo (mice immunized with P815 cells); design: species or system C57BL/6 mice; details: for CTL activity (% specific ^51 Cr release): day 10; for CTL activity (% specific ^51 Cr release) / Inhibition of CTL activity (%): effector to target 10:1
Description: General description. The general test considerations are similar to those previously described for the in vitro murine experiments except that stimulator cells and experimental compound were administered to intact laboratory mice. The impact of compound on CTL responses generated in vivo was determined by comparing the resultant CTL activity from test mice to the CTL activity generated in mice which received vehicle only.
Female C57BL/6 mice were used between the ages of 9-12 weeks. Mice were given food and water ad libitum and were kept in a 12-hour light and 12-hour dark cycle.
A balanced salt solution (BSS) was prepared as described for tissue culture medium in the in vitro murine experiments but was additionally supplemented to 0.01 molar with HEPES buffer.
The compound, 22,23-dehydro-1α,25S,26-trihydroxycholecalciferol was dissolved in dimethylsulfoxide at final concentrations of 2 or 4 mg per ml. When working with vitamin D compounds, conditions of reduced lighting were employed.
In vivo regimens. Mice were apportioned at 4 per group and were inoculated intraperitoneally with 3×10^6 allogeneic P815 tumor cells and the resulting CTL activity was assessed 10 days later. Mice were treated by the intraperitoneal route with 25 microliters of test compound dissolved in dimethylsulfoxide or with dimethylsulfoxide only (vehicle control). In test 1, mice were given daily treatments of 50 micrograms of 22,23-dehydro-1α,25S,26-trihydroxycholecalciferol per day starting one day before immunization and continuing until the day before assay. In test 2, mice were treated with 100 micrograms of 22,23-dehydro-1α,25S,26-trihydroxycholecalciferol only twice: on the day before immunization and on the day of immunization.
Assay for CTL activity. Ten days after immunization of mice with P815 cells, single spleen cell suspensions were prepared by passage of spleens through a steel mesh into BSS and were subsequently washed twice with BSS. Further manipulations of spleen cells, labeling of P815 target cells with ^51 Cr, mechanics of the assay, and the calculation of results from the CTL assay are the same as described earlier for the in vitro murine CTL tests. Cytotoxic T lymphocyte activity was determined individually on spleen cells from each animal in each group and the results are expressed as the mean CTL activity (as percent specific ^51 Cr release) of each group±the standard deviation.
Statistical analysis. A student's t-test was to compare the vehicle-treatedgroup to the test group in each test and the resultant p values are shown.

| Structure (SMILES) | toxicity at concentrations suppressing human CTL generation (in words) [1] | reduction in CTL activity in mice (in words) ([2]; both tests) | CTL activity (% specific ^51 Cr release) ([2]; test 1, 50 ug/dose intraperitoneal daily) | Inhibition of CTL activity (%) ([2]; test 1, 50 ug/dose intraperitoneal daily, p < 0.05) | CTL activity (% specific ^51 Cr release) ([2]; test 2, 100 ug/dose intraperitoneal, twice) | Inhibition of CTL activity (%) ([2]; test 2, 100 ug/dose intraperitoneal, twice, p < 0.01) |
| --- | --- | --- | --- | --- | --- | --- |
| C=C1/C(=C\C=C2/CCC[C@]3(C)[C@@H]([C@H](C)C[C@H](O)CC(C)(C)O)CC[C@@H]23)C[C@@H](O)C[C@@H]1O [1α,23S,25-(OH)3 --D3, 1α,23S,25-Trihydroxycholecalciferol] | non-toxic | – | – | – | – | – |
| C=C1/C(=C\C=C2/CCC[C@]3(C)[C@@H]([C@H](C)C=CC[C@](C)(O)CO)CC[C@@H]23)C[C@@H](O)C[C@@H]1O [1α,25S,26-(OH)3 --Δ^22 -D3, 1α,25S,26-Trihydroxy-Δ^22-cholecalciferol] | – | statistically significant reduction in CTL activity | 13 ± 4 % specific ^51 Cr release | 58% | 14 ± 2 % specific ^51 Cr release | 53% |
